# In patent publication US20090076092A1, “METHOD FOR DISRUPTING REPRODUCTIVE PERFORMANCE OF ARTHROPODS” (priority 2006, published 2009):
# Legend:
# [1] = tested on: green peach aphid (Myzus persicae Sulzer); experiment: Test B: nymph production by green peach aphid after 24 hours exposure on treated radish plants; type: in vivo; conditions: for Living (%) / On plant (%): 1 DAT; for Living (%): all aphids alive 24 h after treatment; for On plant (%): all aphids on the treated plant; for No. of nymphs (mean ± SE): per adult
# Protocol: For evaluating reproductive performance effects on green peach aphid (Myzus persicae Sulzer), each test unit consisted of a radish plant grown in a 6 cm×6 cm square pot infested with a mixed population (nymphs and adults) of green peach aphids from a laboratory-reared culture. Each plant was infested with about 100 aphids. Test solutions were prepared and sprayed on the test plants (2 plants per treatment) as described for TEST A. Treatments included Compound 1 at 100 and 500 ppm, Compound 2 at 4 and 6 ppm, and a control without test compound.
# Aphids were kept on the treated plants for 24 hours, and then only adult aphids staying on the treated plant were transferred to untreated radish plants grown singly in a 6 cm×6 cm square pots. One test unit or one replicate consisted of a single adult aphid on a radish plant in a pot. The number of nymphs in each replicate was counted 4 and 6 days after treatment. At the higher concentration of each test compound a total of 45 replicates were used, and at the lower concentration of each test compound a total of 30 replicates were used. In addition, prior to transferring aphids singly to the untreated radish plants one day after treatment (1 DAT), the total number of aphids living and those remaining on the treated plant were counted.
# The results are listed in Table B. Square-root transformation was done on the number of nymphs produced per adult (female) aphid, and the data were analyzed using analysis of variance (ANOVA) and Fisher's Least Significant Difference (LSD) tests for separation of means.
# [2] = tested on: beet armyworm (Spodoptera exigua); experiment: Test F: oviposition and egg hatch of treated beet armyworm adults; type: in vivo; conditions: for % of reduction: oviposition versus control; for No. neonates: total from successful egg hatch
# Description: For evaluating the reproductive performance effects on beet armyworm (Spodoptera exigua), each test unit consisted of one pair of adult (female and male) Spodoptera exigua moths. To obtain the adult moths, pupae of approximately the same age (±1 day) were sexed and placed in individual containers until adults emerged. After emergence, the test insects were placed in a meshed cage.
# Sub-lethal concentrations of Compound 1 on beet armyworm were defined based on a preliminary study using rates of 12.5, 25, 50 and 100 ppm.
# The caged adults were sprayed with test solutions of the designated treatments using a compressed air-propelled (moving) belt sprayer calibrated at 0.7 m/sec (to deliver a flow rate was ca. 5.5 mL/sec), at 207 kPa, using nozzle 8001E Tee Jet flat fan spray nozzle positioned 18 cm above the test units. Each treatment had 12 replicates (i.e. 12 adult females and 12 adult males were used per treatment).
# One day after treatment, a treated male and female (one each) were placed in a cage made from a 300 mL clear plastic cup covered with screened cloth and allowed to copulate. A cotton wick/plug soaked with 10% sucrose solution was supplied in each cage as a diet source.
# The number of eggs laid and number of eggs hatched were counted at 3, 4, 5 and 6 days after treatment (DAT), which represented the typical period in which female moths actively produce viable eggs. The pair of moths was transferred to a new cage after each evaluation. To evaluate the number of egg hatched, the copulation cages containing eggs were saved and maintained in a growth chamber at 27° C., 50% relative humidity and 16 hours of light per day.
# The raw data were analyzed using Fisher's LSD tests for means separation. […] The percent of reduction was derived by dividing the number of eggs from each treatment by the number of eggs from the control, subtracting the quotient from 1, and then multiplying by 100%.
structure (smiles),measurement,setting,value
"CNC(=O)c1cc(Cl)cc(C)c1NC(=O)c1cc(Br)nn1-c1ncccc1Cl [Compound 1, 3-bromo-N-[4-chloro-2-methyl-6-[(methylamino)carbonyl]phenyl]-1-(3-chloro-2-pyridinyl)-1H-pyrazole-5-carboxamide]",Living (%),[1]; 100 ppm,99.9%
same,On plant (%),[1]; 100 ppm,99.6%
same,No. of nymphs (mean ± SE),"[1]; 100 ppm, 4 DAT",3.5 ± 0.3 b
same,No. of nymphs (mean ± SE),"[1]; 100 ppm, 6 DAT",7.3 ± 0.4 a
same,Living (%),[1]; 500 ppm,99.6%
same,On plant (%),[1]; 500 ppm,99.9%
same,No. of nymphs (mean ± SE),"[1]; 500 ppm, 4 DAT",4.6 ± 0.3 a
same,No. of nymphs (mean ± SE),"[1]; 500 ppm, 6 DAT",8.1 ± 0.5 a
same,% hatched,"[2]; 12.5 ppm, 3 DAT",83%
same,No. eggs,"[2]; 12.5 ppm, 3 DAT",782 b
same,% of reduction,"[2]; 12.5 ppm, 3 DAT",66%
same,No. neonates,"[2]; 12.5 ppm, 3 DAT",647 b
same,% hatched,"[2]; 12.5 ppm, 4 DAT",82%
same,No. eggs,"[2]; 12.5 ppm, 4 DAT",315 b
same,% of reduction,"[2]; 12.5 ppm, 4 DAT",66%
same,No. neonates,"[2]; 12.5 ppm, 4 DAT",257 b
same,% hatched,"[2]; 12.5 ppm, 5 DAT",60%
same,No. eggs,"[2]; 12.5 ppm, 5 DAT",256 b
same,% of reduction,"[2]; 12.5 ppm, 5 DAT",77%
same,No. neonates,"[2]; 12.5 ppm, 5 DAT",154 b
same,% hatched,"[2]; 12.5 ppm, 6 DAT",41%
same,No. eggs,"[2]; 12.5 ppm, 6 DAT",219 b
same,% of reduction,"[2]; 12.5 ppm, 6 DAT",73%
same,No. neonates,"[2]; 12.5 ppm, 6 DAT",90 b
same,% hatched,"[2]; 20 ppm, 3 DAT",31%
same,No. eggs,"[2]; 20 ppm, 3 DAT",208 b
same,% of reduction,"[2]; 20 ppm, 3 DAT",91%
same,No. neonates,"[2]; 20 ppm, 3 DAT",65 b
same,% hatched,"[2]; 20 ppm, 4 DAT",0%
same,No. eggs,"[2]; 20 ppm, 4 DAT",134 bc
same,% of reduction,"[2]; 20 ppm, 4 DAT",91%
same,No. neonates,"[2]; 20 ppm, 4 DAT",0 b
same,% hatched,"[2]; 20 ppm, 5 DAT",0%
same,No. eggs,"[2]; 20 ppm, 5 DAT",132 b
same,% of reduction,"[2]; 20 ppm, 5 DAT",89%
same,No. neonates,"[2]; 20 ppm, 5 DAT",0 b
same,% hatched,"[2]; 20 ppm, 6 DAT",0%
same,No. eggs,"[2]; 20 ppm, 6 DAT",109 b
same,% of reduction,"[2]; 20 ppm, 6 DAT",87%
same,No. neonates,"[2]; 20 ppm, 6 DAT",0 b
same,% hatched,"[2]; 31 ppm, 3 DAT",0%
same,No. eggs,"[2]; 31 ppm, 3 DAT",61 b
same,% of reduction,"[2]; 31 ppm, 3 DAT",97%
same,No. neonates,"[2]; 31 ppm, 3 DAT",0 b
same,% hatched,"[2]; 31 ppm, 4 DAT",0%
same,No. eggs,"[2]; 31 ppm, 4 DAT",29 c
same,% of reduction,"[2]; 31 ppm, 4 DAT",97%
same,No. neonates,"[2]; 31 ppm, 4 DAT",0 b
same,% hatched,"[2]; 31 ppm, 5 DAT",0%
same,No. eggs,"[2]; 31 ppm, 5 DAT",91 b
same,% of reduction,"[2]; 31 ppm, 5 DAT",92%
same,No. neonates,"[2]; 31 ppm, 5 DAT",0 b
same,% hatched,"[2]; 31 ppm, 6 DAT",0%
same,No. eggs,"[2]; 31 ppm, 6 DAT",108 b
same,% of reduction,"[2]; 31 ppm, 6 DAT",87%
same,No. neonates,"[2]; 31 ppm, 6 DAT",0 b
same,number of eggs (fecundity) and number of neonates (fertility) versus control,"[2]; all the tested rates (12.5, 20, 31 ppm), all the observation dates",significant reductions
